Experimental data published in US20150322083A1, “(THIENO[2,3-b][1,5]BENZOXAZEPIN-4-YL)PIPERAZIN-1-YL COMPOUNDS AS SELECTIVE 5-HT2A INVERSE AGONISTS” (Eli Lilly and Company, priority 2014, published 2015).

Experiments:
Dopamine D3 = Dopamine D3 (Homo sapiens, UniProt P35462); assay: Dopamine D3 binding
Procedure: (§1) Curves are evaluated using a 4-parameter logistic nonlinear equation to obtain the concentration of competitor causing 50% inhibition of radioligand binding (IC50). Equilibrium dissociation constants (Ki) are calculated according to the equation Ki=IC50/(1+L/Kd), where L equals the concentration of radioligand used in the experiment and Kd equals the equilibrium dissociation constant of the radioligand for the receptor, determined from standard saturation analysis or homologous competition experiments. Reported values for Ki, where n values are indicated, are shown as geometric mean±the standard error of the mean (SEM), with the number of replicate determinations indicated by n. Geometric means are calculated by the equation GeoMean=10̂(Average(log Ki 1+log Ki 2+ . . . log Ki n)/[…]).
(§2) Further, the compounds of the invention may be tested in binding assays and functional activity assays by well known methods for other physiologically important receptors such as, but not limited to, the hERG channel, other serotonin receptors (specifically 5-HT1B receptors, lack of agonist activity at 5-HT2B receptors, 5-HT2C, 5-HT5, 5-HT6, and 5-HT7 receptors), dopaminergic receptors (specifically D1, D2, and D3), H1 receptors, GABAA receptors, adrenergic receptors and monoamine transporters.

Dopamine D2 = Dopamine D2 (Homo sapiens, UniProt P14416); assay: Dopamine D2 binding
Dopamine D2, sequence (P14416 whole entry): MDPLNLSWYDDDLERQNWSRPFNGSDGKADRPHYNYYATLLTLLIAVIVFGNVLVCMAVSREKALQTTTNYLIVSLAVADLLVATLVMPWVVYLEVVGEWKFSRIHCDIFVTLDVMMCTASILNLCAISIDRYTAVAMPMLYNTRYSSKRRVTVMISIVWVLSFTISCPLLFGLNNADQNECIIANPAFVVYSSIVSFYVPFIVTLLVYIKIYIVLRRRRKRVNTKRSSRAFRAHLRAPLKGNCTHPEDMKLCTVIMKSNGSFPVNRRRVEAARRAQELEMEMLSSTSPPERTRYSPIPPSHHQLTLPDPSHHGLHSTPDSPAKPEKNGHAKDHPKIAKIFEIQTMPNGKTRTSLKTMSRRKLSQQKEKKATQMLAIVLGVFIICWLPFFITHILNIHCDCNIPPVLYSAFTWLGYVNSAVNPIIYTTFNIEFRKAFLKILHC
Procedure: as §1, §2

5-HT2B = 5-HT2B (Homo sapiens, UniProt P41595); assay: 5-HT2B binding (selectivity data)
5-HT2B, sequence (P41595 whole entry, species assumed): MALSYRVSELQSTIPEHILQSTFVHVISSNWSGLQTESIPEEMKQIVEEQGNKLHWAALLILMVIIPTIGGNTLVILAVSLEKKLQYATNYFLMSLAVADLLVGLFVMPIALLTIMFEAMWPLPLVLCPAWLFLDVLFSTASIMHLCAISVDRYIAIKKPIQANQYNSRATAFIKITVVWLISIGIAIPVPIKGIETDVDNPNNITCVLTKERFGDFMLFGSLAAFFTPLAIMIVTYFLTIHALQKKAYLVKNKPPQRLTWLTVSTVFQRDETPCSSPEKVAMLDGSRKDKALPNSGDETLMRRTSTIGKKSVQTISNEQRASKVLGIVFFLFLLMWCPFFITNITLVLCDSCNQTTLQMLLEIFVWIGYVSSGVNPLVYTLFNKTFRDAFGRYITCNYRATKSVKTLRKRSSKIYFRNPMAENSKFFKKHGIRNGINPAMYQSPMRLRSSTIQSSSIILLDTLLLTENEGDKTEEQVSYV
Procedure: as §1, §2

Adrenergic alpha2A = Adrenergic alpha2A (Homo sapiens, UniProt P08913); assay: Adrenergic alpha2A binding
Adrenergic alpha2A, sequence (P08913 whole entry): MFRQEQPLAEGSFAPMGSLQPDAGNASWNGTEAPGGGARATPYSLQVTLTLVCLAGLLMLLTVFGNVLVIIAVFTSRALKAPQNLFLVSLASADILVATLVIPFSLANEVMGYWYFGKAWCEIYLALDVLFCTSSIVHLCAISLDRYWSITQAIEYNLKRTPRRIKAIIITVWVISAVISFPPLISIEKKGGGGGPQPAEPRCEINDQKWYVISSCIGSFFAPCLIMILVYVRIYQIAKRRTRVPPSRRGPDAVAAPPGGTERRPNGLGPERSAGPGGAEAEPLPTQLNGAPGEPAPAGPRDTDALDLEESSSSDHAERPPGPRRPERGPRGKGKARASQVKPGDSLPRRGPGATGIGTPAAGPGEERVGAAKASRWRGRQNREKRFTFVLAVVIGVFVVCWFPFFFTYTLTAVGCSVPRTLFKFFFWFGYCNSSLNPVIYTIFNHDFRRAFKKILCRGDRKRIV
Procedure: as §1, §2

[1] = biological target: recombinant human 5-HT2A receptor (Homo sapiens, UniProt P28223); assay: 5-HT2A inverse agonism, [35S]GTPγS binding to AV12 membranes (human receptor); assay type: biochemical; design: expressed in transfected cells; host or cells: AV12 cells, membranes
recombinant human 5-HT2A receptor, sequence (P28223 whole entry): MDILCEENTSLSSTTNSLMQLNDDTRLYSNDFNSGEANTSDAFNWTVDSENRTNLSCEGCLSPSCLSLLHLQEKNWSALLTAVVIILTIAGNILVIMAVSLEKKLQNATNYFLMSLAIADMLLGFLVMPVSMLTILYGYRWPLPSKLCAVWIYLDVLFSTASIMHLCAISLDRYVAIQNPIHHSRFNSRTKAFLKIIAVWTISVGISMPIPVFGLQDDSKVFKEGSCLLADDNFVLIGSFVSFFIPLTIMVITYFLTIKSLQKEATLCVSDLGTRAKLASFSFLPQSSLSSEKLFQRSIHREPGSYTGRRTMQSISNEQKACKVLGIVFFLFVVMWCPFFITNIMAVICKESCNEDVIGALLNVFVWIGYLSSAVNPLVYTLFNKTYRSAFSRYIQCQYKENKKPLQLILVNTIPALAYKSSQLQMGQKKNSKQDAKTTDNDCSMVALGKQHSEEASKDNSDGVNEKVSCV
Procedure: (§3) The inverse agonist activity of compounds of the present invention may be determined by literature recognized assay methods measuring [^35S]GTPγS binding to membranes transfected with 5-HT2A receptors in an in vitro activity assay essentially as described below.
(§4) Membranes are prepared from frozen pellets of whole AV12 cells expressing the human or rat 5-HT2A receptor. Cells are thawed on ice and homogenized in homogenization buffer (50 mM Tris-HCl, 0.5 mM EDTA, 1 tablet/100 mL of complete EDTA free protease inhibitor tablets (Roche Cat. No. 05 056 489 001), pH=7.4) with 20 strokes of a teflon-glass homogenizer attached to a motorized overhead stirrer. Centrifuge membranes at 1000 rpm (aprox. 150×g) for 15 min. at 4° C. […] The final supernatant is discarded and the pellet is resuspended in homogenization buffer and its protein content is determined by the method of Bradford using BSA as the standard. […]
(§5) Test compound is prepared from a 10 mM DMSO stock solution by serial dilution to provide a 10 point concentration response curve, with a final 1% DMSO concentration when added to the assay mixture. […] This mixture is incubated for 3 hr. with constant shaking at room temperature, centrifuged at 300 rpm for 1 min. with no brake and incubated for 3 more hr. before reading in a microplate scintillation counter.

[2] = system: DOI induced headshake response; assay: Inhibition of DOI induced headshake activity; assay type: in vivo, male C57BL/6J mice; conditions: mice, PO, 60 min. pre-treatment, DOI 3 mg/kg subcutaneously
Procedure: (see for example Bartoszyk G D, van Amsterdam C, Böttcher H, Seyfried C A. EMD 281014, a new selective serotonin 5-HT2A receptor antagonist. Eur J Pharmacol. 2003 473: 229-230.) This assay has also be used as an indicator of anti-psychotic therapeutic potential. Briefly, male C57BL/6J mice (20-25 g, Charles River) are housed in standard housing conditions (32 mice in a large IVC cage, 07.00 to 19.00 light phase, constant temperature (19-23° C.) and humidity (50%+/−10), ad lib food and water). Mice received either vehicle (0.25% Methyl cellulose), DOI (3 mg/kg in saline) or test compound at doses up to 10 mg/kg PO plus DOI (3 mg/kg in saline). Test compounds are individually evaluated at 4 doses with n=4 for each dose, together with vehicle and DOI+vehicle (n=8). After a test compound pre-treatment time of 60 min. the mice receive either vehicle (saline) or 3 mg/kg DOI dosed subcutaneously, and are then placed into clear perspex observation chambers. […] The data is analyzed using an ANOVA and post-hoc Dunnet's Test. The compounds of Example 1 and Example 2 are tested essentially as described and are found to inhibit the DOI induced headshake response with an approximate EC50 of 0.5 mg/kg for both compounds.

[3] = biological target: T1, recombinant rat 5-HT2A receptor (Rattus norvegicus, UniProt P14842); assay: 5-HT2A inverse agonism, [35S]GTPγS binding to AV12 membranes (rat receptor); assay type: biochemical; conditions: n=2, read-out: EC50, inhibition of intrinsic activity of the 5-HT2A receptor
T1 construct: expressed in transfected cells; host or cells: AV12 cells, membranes
T1 sequence (P14842 whole entry): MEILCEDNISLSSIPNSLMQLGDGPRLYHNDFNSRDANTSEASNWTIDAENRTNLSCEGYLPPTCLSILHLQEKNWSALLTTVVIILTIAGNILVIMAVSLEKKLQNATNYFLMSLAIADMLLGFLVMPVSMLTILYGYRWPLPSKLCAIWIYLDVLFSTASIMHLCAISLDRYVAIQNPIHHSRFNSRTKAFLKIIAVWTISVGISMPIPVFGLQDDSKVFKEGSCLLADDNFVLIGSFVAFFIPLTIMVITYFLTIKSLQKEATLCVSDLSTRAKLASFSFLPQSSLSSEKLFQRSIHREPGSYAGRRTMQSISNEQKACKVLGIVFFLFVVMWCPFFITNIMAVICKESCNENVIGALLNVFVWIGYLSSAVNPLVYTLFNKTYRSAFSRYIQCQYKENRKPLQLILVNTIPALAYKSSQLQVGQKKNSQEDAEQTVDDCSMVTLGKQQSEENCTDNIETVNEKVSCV
Procedure: as §3, §4, §5

Dopamine Transporter = Dopamine Transporter (Homo sapiens, UniProt Q01959); assay: Dopamine transporter binding
Dopamine Transporter, sequence (Q01959 whole entry): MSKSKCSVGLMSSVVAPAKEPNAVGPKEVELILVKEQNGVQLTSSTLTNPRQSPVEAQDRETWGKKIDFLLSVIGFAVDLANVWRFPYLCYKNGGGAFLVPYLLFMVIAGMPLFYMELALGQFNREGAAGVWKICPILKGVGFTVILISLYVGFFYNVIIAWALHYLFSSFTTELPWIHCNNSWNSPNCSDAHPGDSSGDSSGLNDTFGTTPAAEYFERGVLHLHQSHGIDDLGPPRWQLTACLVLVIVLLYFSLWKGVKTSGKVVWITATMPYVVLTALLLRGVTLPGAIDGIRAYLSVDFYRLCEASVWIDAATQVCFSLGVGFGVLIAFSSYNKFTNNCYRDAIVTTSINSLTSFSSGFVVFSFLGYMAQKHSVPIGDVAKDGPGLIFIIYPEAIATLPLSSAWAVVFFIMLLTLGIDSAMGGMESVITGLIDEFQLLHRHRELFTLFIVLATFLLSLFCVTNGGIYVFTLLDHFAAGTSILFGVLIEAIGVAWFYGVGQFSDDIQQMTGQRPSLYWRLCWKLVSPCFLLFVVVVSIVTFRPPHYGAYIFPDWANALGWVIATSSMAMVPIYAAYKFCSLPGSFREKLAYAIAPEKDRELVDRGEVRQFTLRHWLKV
Procedure: as §1, §2

Dopamine D3, sequence (P35462 whole entry): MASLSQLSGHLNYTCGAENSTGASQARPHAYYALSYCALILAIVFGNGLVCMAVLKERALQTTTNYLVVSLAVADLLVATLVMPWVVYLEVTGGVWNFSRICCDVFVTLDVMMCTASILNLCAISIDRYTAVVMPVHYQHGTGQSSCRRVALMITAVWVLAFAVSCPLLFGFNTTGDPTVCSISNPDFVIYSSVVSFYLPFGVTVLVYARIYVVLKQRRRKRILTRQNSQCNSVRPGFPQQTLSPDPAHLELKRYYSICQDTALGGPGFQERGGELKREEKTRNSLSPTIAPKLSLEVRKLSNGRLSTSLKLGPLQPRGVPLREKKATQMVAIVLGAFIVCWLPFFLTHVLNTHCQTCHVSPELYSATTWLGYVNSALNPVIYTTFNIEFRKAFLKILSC

**Q.** Cc1ccc2c(c1)Oc1sc(SC(C)C)cc1C(N1CCN(CC(C)(C)C(=O)O)CC1)=N2 [Example 1, 3-[4-(2-isopropylsulfanyl-8-methyl-thieno[2,3-b][1,5]benzoxazepin-4-yl)piperazin-1-yl]-2,2-dimethyl-propanoic acid] was tested. Which Ki (Dopamine D3) did it give?
**A.** Its Ki is > 5470 nM.

**Q.** What about the Ki (Dopamine D2) of the same compound?
**A.** The Ki was > 7660 nM.

**Q.** What about the Ki (5-HT2B) of the same compound?
**A.** Its Ki is 763 nM.

**Q.** What about the Ki (Adrenergic alpha2A) of the same compound?
**A.** The Ki was > 1610 nM.

**Q.** What about the “5-HT2A inverse agonism (in words)” value [1] of the same compound?
**A.** Its value is “inverse agonist of the 5-HT2A receptor”.

**Q.** And the EC50 ([1]; recombinant human receptor, n=2, read-out: EC50, inhibition of intrinsic activity of the 5-HT2A receptor)?
**A.** Its EC50 is 85 nM.

**Q.** And the “approximate EC50, inhibition of DOI induced headshake response” value [2]?
**A.** Its value is ~0.5 mg/kg.

**Q.** And the EC50 [3]?
**A.** The EC50 was 103 nM.

**Q.** And the Ki (Dopamine Transporter)?
**A.** Its Ki is > 866 nM.
